Test results published in US12043630B2, “Polymorphic form of TG02 for treating cancer” (Cothera Bioscience, Inc., priority 2017, dated 2024).
Counter-ions that a name gives are not always drawn. Blank lines part the entries; values can stand above or below the compound they belong to.

Key:
[1] = Gravimetric Vapour Sorption (GVS); type: physicochemical; settings: for Hygroscopicity by GVS analysis / GVS uptake: 25° C.; for GVS uptake: between 0-90% RH
Method: Sorption isotherms were obtained using a SMS DVS Intrinsic moisture sorption analyser, controlled by DVS Intrinsic Control software. The sample temperature was maintained at 25° C. by the instrument controls. The humidity was controlled by mixing streams of dry and wet nitrogen, with a total flow rate of 200 ml/min. The relative humidity was measured by a calibrated Rotronic probe (dynamic range of 1.0-100% RH), located near the sample. The weight change, (mass relaxation) of the sample as a function of % RH was constantly monitored by a microbalance (accuracy±0.005 mg).
Typically, 5-30 mg of sample was placed in a tared mesh stainless steel basket under ambient conditions. The sample was loaded and unloaded at 40% RH and 25° C. (typical room conditions). A moisture sorption isotherm was performed as outlined below (2 scans per complete cycle). The standard isotherm was performed at 25° C. at 10% RH intervals over a 0-90% RH range. Typically, a double cycle (4 scans) was carried out. Data analysis was carried out within Microsoft Excel using the DVS Analysis Suite.
The sample was recovered after completion of the isotherm and re-analysed by XRPD.

[2] = Storage at elevated temperature and relative humidity, re-analysis by XRPD; type: physicochemical; settings: for XRPD following storage at elevated temperatures and relative humidity: 28 days
Text: X-ray Powder Diffraction (XRPD or PXRD) diffractograms were collected on a Bruker AXS C2 GADDS, Bruker AXS DB Advance, PANalytical Empyrean, or similar diffractometer using Cu Kα radiation.
Proton NMR was consistent with the proposed structure. However, as the methylene protons of the citric acid overlapped with the D6-DMSO reference peak, the stoichiometric equivalence of citrate acid is slightly offset. […] Differential scanning calorimetry thermal events included a single broad endotherm at 204.5° C. (366.9 J/g).
Proton NMR analysis was consistent with the proposed structure, although there was overlap of the methylene protons of the citrate and the D6-DMSO reference peak. […] (327.7 J/g).
These additional peaks remained throughout the 28 days storage period. This may be caused by dehydration of the hydrate. Proton NMR analysis was consistent with the proposed structure, although there was overlap of the methylene protons of the citrate and the D6-DMSO reference peak. […] Differential scanning calorimetry consisted of a broad, asymmetrical endotherm between 25-115° C. (70.2 J/g) followed by a large endotherm at 186.0° C. (313.4 J/g), possibly due to the sample melt and dissolution of the salt. […] Water content was determined by Karl Fischer analysis to be 3.3%, equating to 1 molar equivalent of water.

[3] = Thermodynamic Aqueous Solubility; type: physicochemical; settings: aqueous media; for Thermodynamic solubility: 25° C., 24 hours
Method: Aqueous solubility was determined by suspending sufficient compound in relevant media to give a maximum final concentration of ≥10 mg/ml of the parent freeform of the compound. The suspension was equilibrated at 25° C., on a Heidolph plate shaker set to 750 rpm for 24 hours. The pH of the saturated solution was then measured and the suspension filtered through a glass fibre C filter (particle retention 1.2 μm) and diluted appropriately. Quantitation was by HPLC with reference to a standard solution of approximately 0.15 mg/ml in DMSO. Different volumes of the standard, diluted and undiluted sample solutions were injected. The solubility was calculated using the peak areas determined by integration of the peak found at the same retention time as the principal peak in the standard injection.

[4] = Slurry of mixed TG02 citrate polymorphs in solvents, XRPD of recovered solids (Method B); type: physicochemical; settings: 4 days
Method: Method B: A homogeneous mixture of TG02 Form X (citrate), TG02 Citrate Pattern 1 of U.S. Pat. No. 9,120,815, and TG02 Citrate Pattern 2 of U.S. Pat. No. 9,120,815 was treated with solvent (20 vol.) and agitated for 4 days at different temperatures (5° C., 25° C., and 50° C.). The recovered solids were air dried and analysed by XRPD.

JAK2 = JAK2 (Homo sapiens, UniProt O60674); settings: cited from earlier work
CDK9 = CDK9 (Homo sapiens, UniProt P50750); settings: cited from earlier work
CDK7 = CDK7 (Homo sapiens, UniProt P50613); settings: cited from earlier work
CDK2 = CDK2 (Homo sapiens, UniProt P24941); settings: cited from earlier work
tumor cell lines = settings: cited from earlier work
[5] = test system: progenitor cells derived from acute myeloid leukemia (AML) and polycythemia vera patients; settings: cited from earlier work
FLT3 = target: T1, FLT3 (Homo sapiens, UniProt P36888); settings: cited from earlier work
T1 sequence (P36888 27-993): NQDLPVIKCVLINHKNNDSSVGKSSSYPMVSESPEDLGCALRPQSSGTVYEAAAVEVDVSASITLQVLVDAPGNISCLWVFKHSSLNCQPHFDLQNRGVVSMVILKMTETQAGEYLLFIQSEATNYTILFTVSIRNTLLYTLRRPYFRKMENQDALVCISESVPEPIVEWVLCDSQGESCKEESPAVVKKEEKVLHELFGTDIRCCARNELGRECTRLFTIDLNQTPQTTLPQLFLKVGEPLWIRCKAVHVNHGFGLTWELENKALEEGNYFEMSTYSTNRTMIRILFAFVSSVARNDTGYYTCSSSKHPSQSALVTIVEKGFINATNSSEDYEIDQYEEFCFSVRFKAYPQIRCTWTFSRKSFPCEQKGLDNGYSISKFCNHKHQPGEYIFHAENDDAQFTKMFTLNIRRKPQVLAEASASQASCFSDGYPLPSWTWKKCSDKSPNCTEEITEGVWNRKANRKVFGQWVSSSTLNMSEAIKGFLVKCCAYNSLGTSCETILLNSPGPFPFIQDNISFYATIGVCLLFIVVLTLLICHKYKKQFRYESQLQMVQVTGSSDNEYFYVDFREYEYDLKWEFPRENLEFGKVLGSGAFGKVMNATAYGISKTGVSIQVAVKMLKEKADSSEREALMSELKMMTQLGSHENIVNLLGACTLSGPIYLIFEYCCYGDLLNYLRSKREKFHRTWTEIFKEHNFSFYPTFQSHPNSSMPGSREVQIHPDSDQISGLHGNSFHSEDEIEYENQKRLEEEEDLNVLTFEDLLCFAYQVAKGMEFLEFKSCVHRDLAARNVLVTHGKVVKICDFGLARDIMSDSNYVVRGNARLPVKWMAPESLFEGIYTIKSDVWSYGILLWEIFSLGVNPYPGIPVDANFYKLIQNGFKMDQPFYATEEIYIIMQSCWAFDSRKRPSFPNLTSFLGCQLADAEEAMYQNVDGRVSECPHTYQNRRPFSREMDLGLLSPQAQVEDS

[6] = test system: signaling pathways downstream of CDKs, JAK2 and FLT3 in cancer cells; settings: cited from earlier work
CDK1 = CDK1 (Homo sapiens, UniProt P06493); settings: cited from earlier work
CDK5 = CDK5 (Homo sapiens, UniProt Q00535); settings: cited from earlier work
[7] = 40° C./75% RH, 25° C./97% RH and 60° C./ambient RH

CDK5, sequence (Q00535 whole entry): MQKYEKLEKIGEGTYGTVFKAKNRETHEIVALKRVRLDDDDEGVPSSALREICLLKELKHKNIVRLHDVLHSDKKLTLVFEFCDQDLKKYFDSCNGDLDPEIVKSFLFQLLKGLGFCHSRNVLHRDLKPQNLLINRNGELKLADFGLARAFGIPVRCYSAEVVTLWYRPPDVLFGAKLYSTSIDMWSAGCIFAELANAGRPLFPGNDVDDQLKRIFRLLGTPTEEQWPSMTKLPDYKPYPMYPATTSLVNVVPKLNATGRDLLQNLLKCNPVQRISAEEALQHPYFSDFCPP
CDK5, sequence (Q15078 whole entry partner): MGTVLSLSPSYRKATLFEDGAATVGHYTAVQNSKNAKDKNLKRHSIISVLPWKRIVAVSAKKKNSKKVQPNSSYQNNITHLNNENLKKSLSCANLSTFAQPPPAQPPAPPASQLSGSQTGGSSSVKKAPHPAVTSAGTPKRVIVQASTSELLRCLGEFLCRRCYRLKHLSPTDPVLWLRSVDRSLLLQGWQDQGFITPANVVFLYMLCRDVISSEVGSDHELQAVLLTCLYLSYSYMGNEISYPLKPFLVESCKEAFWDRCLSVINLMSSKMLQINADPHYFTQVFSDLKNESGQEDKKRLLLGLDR
CDK1, sequence (P06493 whole entry): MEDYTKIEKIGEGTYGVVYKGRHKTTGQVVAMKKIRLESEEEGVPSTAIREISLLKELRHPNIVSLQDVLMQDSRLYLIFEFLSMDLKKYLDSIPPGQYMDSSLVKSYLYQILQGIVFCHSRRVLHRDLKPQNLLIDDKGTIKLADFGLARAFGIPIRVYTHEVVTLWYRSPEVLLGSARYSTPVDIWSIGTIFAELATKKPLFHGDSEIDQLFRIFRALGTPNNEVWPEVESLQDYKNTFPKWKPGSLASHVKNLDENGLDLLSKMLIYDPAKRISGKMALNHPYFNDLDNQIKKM
CDK1, sequence (P14635 whole entry partner): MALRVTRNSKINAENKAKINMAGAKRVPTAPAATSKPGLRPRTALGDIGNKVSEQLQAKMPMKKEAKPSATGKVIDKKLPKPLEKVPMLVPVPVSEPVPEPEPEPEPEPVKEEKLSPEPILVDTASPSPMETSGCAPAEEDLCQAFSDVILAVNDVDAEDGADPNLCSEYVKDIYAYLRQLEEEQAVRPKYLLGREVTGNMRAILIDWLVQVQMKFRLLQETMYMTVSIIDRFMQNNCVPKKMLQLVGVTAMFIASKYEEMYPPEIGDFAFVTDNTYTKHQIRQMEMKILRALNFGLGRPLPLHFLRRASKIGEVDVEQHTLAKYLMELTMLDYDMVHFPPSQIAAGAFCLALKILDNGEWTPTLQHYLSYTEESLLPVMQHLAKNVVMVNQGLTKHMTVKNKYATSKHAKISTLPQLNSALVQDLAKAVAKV
CDK9, sequence (P50750 whole entry): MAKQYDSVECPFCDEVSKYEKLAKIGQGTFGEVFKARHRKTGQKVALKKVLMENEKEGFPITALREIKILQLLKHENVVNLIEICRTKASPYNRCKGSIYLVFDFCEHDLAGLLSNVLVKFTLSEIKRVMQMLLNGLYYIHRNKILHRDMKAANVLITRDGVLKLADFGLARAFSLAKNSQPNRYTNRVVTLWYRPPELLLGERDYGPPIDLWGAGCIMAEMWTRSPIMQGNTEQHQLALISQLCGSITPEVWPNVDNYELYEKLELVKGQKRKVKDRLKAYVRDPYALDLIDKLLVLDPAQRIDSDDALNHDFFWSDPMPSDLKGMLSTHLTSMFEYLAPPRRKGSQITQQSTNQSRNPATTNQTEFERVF
CDK9, sequence (O60563 whole entry partner): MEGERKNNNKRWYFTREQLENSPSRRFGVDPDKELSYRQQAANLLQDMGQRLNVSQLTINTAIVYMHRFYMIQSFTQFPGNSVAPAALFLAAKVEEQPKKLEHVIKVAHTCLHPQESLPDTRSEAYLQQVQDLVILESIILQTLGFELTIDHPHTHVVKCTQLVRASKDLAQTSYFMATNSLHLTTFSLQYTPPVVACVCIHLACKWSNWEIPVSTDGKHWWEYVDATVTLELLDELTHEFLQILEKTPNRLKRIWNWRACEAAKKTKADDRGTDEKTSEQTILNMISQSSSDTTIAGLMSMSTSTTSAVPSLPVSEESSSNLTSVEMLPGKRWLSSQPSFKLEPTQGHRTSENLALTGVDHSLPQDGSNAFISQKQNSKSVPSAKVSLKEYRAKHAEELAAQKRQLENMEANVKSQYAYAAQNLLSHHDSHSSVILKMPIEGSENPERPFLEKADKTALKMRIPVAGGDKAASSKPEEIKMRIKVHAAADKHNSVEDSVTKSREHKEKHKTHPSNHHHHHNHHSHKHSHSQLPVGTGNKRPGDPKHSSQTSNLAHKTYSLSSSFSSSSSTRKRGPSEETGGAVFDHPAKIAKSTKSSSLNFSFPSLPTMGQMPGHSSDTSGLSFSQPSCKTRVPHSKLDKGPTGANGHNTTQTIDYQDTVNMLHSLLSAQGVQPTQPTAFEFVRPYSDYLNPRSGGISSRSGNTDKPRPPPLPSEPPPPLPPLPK
CDK7, sequence (P50613 whole entry): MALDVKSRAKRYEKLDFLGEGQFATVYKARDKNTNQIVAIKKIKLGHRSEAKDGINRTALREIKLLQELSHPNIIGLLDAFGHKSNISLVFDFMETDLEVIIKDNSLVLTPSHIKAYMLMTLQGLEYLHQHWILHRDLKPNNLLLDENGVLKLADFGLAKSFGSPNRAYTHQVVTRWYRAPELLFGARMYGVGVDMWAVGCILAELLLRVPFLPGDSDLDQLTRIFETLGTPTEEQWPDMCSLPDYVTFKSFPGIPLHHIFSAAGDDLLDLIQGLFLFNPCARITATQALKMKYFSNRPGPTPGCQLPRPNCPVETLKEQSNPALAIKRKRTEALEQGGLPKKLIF
CDK7, sequence (P51946 whole entry partner): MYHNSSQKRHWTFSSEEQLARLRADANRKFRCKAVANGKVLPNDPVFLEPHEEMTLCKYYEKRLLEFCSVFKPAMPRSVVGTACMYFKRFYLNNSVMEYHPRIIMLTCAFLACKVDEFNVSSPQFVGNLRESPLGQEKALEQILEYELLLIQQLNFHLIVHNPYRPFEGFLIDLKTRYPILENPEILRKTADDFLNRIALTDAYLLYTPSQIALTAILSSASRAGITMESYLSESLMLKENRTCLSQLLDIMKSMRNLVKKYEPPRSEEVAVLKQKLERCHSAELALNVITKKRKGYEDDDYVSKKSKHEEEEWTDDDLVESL
CDK7, sequence (P51948 whole entry partner): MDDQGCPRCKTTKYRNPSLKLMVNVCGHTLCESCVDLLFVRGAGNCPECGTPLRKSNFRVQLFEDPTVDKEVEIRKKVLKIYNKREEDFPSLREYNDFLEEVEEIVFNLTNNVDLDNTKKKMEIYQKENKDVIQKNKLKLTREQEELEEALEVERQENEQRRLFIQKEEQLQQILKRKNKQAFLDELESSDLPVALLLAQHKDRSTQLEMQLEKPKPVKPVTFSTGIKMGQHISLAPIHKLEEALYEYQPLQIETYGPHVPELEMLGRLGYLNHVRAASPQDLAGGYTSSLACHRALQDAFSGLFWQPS
JAK2, sequence (O60674 whole entry): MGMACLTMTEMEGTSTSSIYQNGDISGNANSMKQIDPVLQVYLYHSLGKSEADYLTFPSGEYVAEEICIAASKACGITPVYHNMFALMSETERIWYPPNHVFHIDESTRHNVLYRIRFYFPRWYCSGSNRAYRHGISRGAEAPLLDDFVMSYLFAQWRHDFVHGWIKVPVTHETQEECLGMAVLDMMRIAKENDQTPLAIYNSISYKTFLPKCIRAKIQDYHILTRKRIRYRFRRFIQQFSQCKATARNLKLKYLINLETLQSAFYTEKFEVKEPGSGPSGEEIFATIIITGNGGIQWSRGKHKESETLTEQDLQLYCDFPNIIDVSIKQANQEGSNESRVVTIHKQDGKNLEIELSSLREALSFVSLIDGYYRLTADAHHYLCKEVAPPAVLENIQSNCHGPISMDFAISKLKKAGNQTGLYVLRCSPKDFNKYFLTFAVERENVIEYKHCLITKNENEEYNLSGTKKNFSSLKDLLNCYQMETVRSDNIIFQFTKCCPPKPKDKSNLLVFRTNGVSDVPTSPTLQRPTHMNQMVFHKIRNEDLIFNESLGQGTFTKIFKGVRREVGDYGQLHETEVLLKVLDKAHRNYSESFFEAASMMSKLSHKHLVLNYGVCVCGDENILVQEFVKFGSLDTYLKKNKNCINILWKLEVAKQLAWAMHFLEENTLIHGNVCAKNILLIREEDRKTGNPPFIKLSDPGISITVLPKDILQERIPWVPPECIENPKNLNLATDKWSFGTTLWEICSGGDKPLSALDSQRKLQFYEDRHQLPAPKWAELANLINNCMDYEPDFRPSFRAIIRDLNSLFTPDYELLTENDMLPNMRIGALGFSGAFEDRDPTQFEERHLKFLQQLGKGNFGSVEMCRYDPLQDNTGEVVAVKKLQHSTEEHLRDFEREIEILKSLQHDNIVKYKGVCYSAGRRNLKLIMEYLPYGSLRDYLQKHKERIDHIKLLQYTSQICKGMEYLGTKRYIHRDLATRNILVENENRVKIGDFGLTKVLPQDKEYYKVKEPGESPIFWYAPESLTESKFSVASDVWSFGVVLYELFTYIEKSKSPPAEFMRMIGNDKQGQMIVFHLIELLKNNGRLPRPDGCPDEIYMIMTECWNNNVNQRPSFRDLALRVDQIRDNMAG

XRPD following GVS analysis [1]: remained unchanged by XRPD
Hygroscopicity by GVS analysis [1]: slightly-hygroscopic
GVS uptake [1]: 1.0%
GVS maximum hysteresis ([1]; between 40-50% RH): 0.2%
XRPD following storage at elevated temperatures and relative humidity [2, 7]: remained unchanged by XRPD
Thermodynamic solubility [3]: 330 µg/mL
Structure (SMILES): CN1C/C=C/CCOc2cccc(c2)-c2ccnc(n2)Nc2cccc(c2)C1 [TG02 Citrate Pattern 1, (16E)-14-methyl-20-oxa-5,7,14,26-tetraazatetracyclo[19.3.1.1(2,6).1(8,12)]heptacosa-1(25),2(26),3,5,8(27),9,11,16,21,23-decaene]
XRPD following thermodynamic solubility analysis [3]: form change from TG02 Citrate Pattern 1 to TG02 Citrate Pattern 2

XRPD following GVS analysis [1]: remained unchanged by XRPD
Hygroscopicity by GVS analysis [1]: hygroscopic
GVS uptake [1]: 3.84%
GVS maximum hysteresis ([1]; between 10-30% RH): 1.4%
XRPD following storage at elevated temperatures and relative humidity ([2]; 40° C./75% RH and 25° C./97% RH): remained unchanged by XRPD
XRPD following thermodynamic solubility analysis [3]: remained unchanged by XRPD
Thermodynamic solubility [3]: 230 µg/mL
Structure (SMILES): CN1C/C=C/CCOc2cccc(c2)-c2ccnc(n2)Nc2cccc(c2)C1 [TG02 Citrate Pattern 2, (16E)-14-methyl-20-oxa-5,7,14,26-tetraazatetracyclo[19.3.1.1(2,6).1(8,12)]heptacosa-1(25),2(26),3,5,8(27),9,11,16,21,23-decaene]
XRPD following storage ([2]; 60° C./ambient RH, peaks remained throughout 28 days): additional peaks being present in the XRPD diffractogram after 7 days

Second part, the compound before the results:

Structure (SMILES): CN1C/C=C/CCOc2cccc(c2)-c2ccnc(n2)Nc2cccc(c2)C1 [Form X (citrate), (16E)-14-methyl-20-oxa-5,7,14,26-tetraazatetracyclo[19.3.1.1(2,6).1(8,12)]heptacosa-1(25),2(26),3,5,8(27),9,11,16,21,23-decaene]
XRPD following GVS analysis [1]: remained unchanged by XRPD
Hygroscopicity by GVS analysis [1]: non-hygroscopic
GVS uptake [1]: 0.13%
GVS maximum hysteresis ([1]; between 40-60% RH): 0.04%
XRPD following storage at elevated temperatures and relative humidity [2, 7]: remained unchanged by XRPD
Thermodynamic solubility [3]: 640 µg/mL

Structure (SMILES): CN1C/C=C/CCOc2cccc(c2)-c2ccnc(n2)Nc2cccc(c2)C1 [TG02 (Citrate)]
TG02 (Citrate) Polymorph recovered (XRPD) ([4]; Acetone 20 vol., 5° C.): Form X
TG02 (Citrate) Polymorph recovered (XRPD) ([4]; Acetone 20 vol., 25° C.): Form X
TG02 (Citrate) Polymorph recovered (XRPD) ([4]; Acetone 20 vol., 50° C.): Form X
TG02 (Citrate) Polymorph recovered (XRPD) ([4]; Acetone:H2O (9:1) 20 vol., 5° C.): Pattern 2
TG02 (Citrate) Polymorph recovered (XRPD) ([4]; Acetone:H2O (9:1) 20 vol., 25° C.): Pattern 2
TG02 (Citrate) Polymorph recovered (XRPD) ([4]; Acetone:H2O (9:1) 20 vol., 50° C.): Pattern 2
TG02 (Citrate) Polymorph recovered (XRPD) ([4]; DCM:H2O (9:1) 20 vol., 5° C.): Pattern 2 + Form X
TG02 (Citrate) Polymorph recovered (XRPD) ([4]; DCM:H2O (9:1) 20 vol., 25° C.): Pattern 2
TG02 (Citrate) Polymorph recovered (XRPD) ([4]; DCM:H2O (9:1) 20 vol., 50° C.): Form X
TG02 (Citrate) Polymorph recovered (XRPD) ([4]; EtOAc 20 vol., 5° C.): Pattern 2 + Form X
TG02 (Citrate) Polymorph recovered (XRPD) ([4]; EtOAc 20 vol., 25° C.): Form X
TG02 (Citrate) Polymorph recovered (XRPD) ([4]; EtOAc 20 vol., 50° C.): Form X
TG02 (Citrate) Polymorph recovered (XRPD) ([4]; H2O 20 vol., 5° C.): Pattern 2
TG02 (Citrate) Polymorph recovered (XRPD) ([4]; H2O 20 vol., 25° C.): Pattern 2
TG02 (Citrate) Polymorph recovered (XRPD) ([4]; H2O 20 vol., 50° C.): Pattern 2
TG02 (Citrate) Polymorph recovered (XRPD) ([4]; IPA 20 vol., 5° C.): Form X
TG02 (Citrate) Polymorph recovered (XRPD) ([4]; IPA 20 vol., 25° C.): Form X
TG02 (Citrate) Polymorph recovered (XRPD) ([4]; IPA 20 vol., 50° C.): Form X
TG02 (Citrate) Polymorph recovered (XRPD) ([4]; TBME 20 vol., 5° C.): Pattern 2 + Form X
TG02 (Citrate) Polymorph recovered (XRPD) ([4]; TBME 20 vol., 25° C.): Pattern 2 + Form X
TG02 (Citrate) Polymorph recovered (XRPD) ([4]; TBME 20 vol., 50° C.): Form X
TG02 (Citrate) Polymorph recovered (XRPD) ([4]; THF:H2O (9:1) 20 vol., 5° C.): Pattern 2
TG02 (Citrate) Polymorph recovered (XRPD) ([4]; THF:H2O (9:1) 20 vol., 25° C.): Pattern 2
TG02 (Citrate) Polymorph recovered (XRPD) ([4]; THF:H2O (9:1) 20 vol., 50° C.): Pattern 2

Structure (SMILES): CN1C/C=C/CCOc2cccc(c2)-c2ccnc(n2)Nc2cccc(c2)C1 [TG02, (16E)-14-methyl-20-oxa-5,7,14,26-tetraazatetracyclo[19.3.1.1(2,6).1(8,12)]heptacosa-1(25),2(26),3,5,8(27),9,11,16,21,23-decaene]
Inhibition of JAK2 (JAK2): inhibits
Inhibition of CDK9 (CDK9): inhibits
Inhibition of CDK7 (CDK7): inhibits
Inhibition of CDK2 (CDK2): inhibits
Anti-proliferative activity (tumor cell lines; broad range of tumor cell lines): anti-proliferative
Cell cycle arrest and apoptosis (tumor cell lines; tumor cell lines): inducing Gi cell cycle arrest and apoptosis
Sensitivity of primary cultures to TG02 [5]: very sensitive
Inhibition of FLT3 (FLT3): inhibits
Inhibition of signaling pathways downstream of CDKs, JAK2 and FLT3 [6]: dose-dependently inhibits
Inhibition of CDK1 (CDK1): inhibits
Inhibition of CDK5 (CDK5): inhibits
